Data taken from EP4763839A1 (Pamplona Therapeutics (Shenzhen) Co., Ltd., priority 2023, dated 2025).

Target: T1, IRAK4 (Homo sapiens, UniProt Q9NWZ3)
T1 sequence (Q9NWZ3 1-460): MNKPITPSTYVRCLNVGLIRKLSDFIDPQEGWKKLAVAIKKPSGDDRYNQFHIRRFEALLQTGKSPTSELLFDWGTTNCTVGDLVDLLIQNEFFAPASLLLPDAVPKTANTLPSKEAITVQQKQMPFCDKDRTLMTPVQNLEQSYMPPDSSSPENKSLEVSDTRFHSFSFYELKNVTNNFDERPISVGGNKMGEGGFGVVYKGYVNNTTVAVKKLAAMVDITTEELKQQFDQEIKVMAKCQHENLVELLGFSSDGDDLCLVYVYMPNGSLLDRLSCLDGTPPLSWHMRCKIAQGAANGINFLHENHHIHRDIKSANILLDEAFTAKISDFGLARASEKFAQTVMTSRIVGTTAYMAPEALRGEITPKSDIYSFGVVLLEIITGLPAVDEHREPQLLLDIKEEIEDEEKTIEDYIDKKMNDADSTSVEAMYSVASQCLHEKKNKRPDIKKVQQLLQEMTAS
Assay: Degradation of IRAK4 in THP1 cells, Western blot
Format: cell-based
Design: Degradation of IRAK4 in THP1 by compound; host or cells: THP-1
Conditions: THP-1 cells, 24 hours of incubation; for DC50: IRAK4 protein by Western blot, read-out: DC50; for Dmax: maximum degradation rate, read-out: Dmax
Summary of the method: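 THP1 cells treated 24 h, lysed; lysates normalised by BCA, 40 μg protein per lane on 10% SDS-PAGE, anti-IRAK4 Western blot with chemiluminescence detection.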

Row | Structure (SMILES) | DC50 [nM] | Dmax [%]
1 | Cn1c(=O)n(C2CCC(=O)NC2=O)c2cccc(N3CCC(CN4CCN(C5CCC(n6cc(NC(=O)c7cccc(C(F)(F)F)n7)c(C(N)=O)n6)CC5)CC4)CC3)c21 (stereo not drawn) [Compound A380] | < 100 | > 60
2 | N#Cc1ccnc(C(=O)Nc2cn(-c3ccc(N4CCN(C5CCN(c6ccc(NC7CCC(=O)NC7=O)cc6F)CC5)CC4)cc3)nc2C(N)=O)c1 (stereo not drawn) [Compound A387, N-(3-Carbamoyl-1-(4-(4-(1-(4-((2,6-Dioxopiperidin-3-yl)amino)-2-fluorophenyl)piperidin-4-yl)piperazin-1-yl)phenyl)-1H-pyrazol-4-yl)-4-cyanopicolinamide] | > 1000 | < 40
3 | N#Cc1cccc(C(=O)Nc2cn(-c3ccc(N4CCN(C5CCN(c6ccc(NC7CCC(=O)NC7=O)cc6F)CC5)CC4)cc3)nc2C(N)=O)n1 (stereo not drawn) [Compound A388, N-(3-Carbamoyl-1-(4-(4-(1-(4-((2,6-Dioxopiperidin-3-yl)amino)-2-fluorophenyl)piperidin-4-yl)piperazin-1-yl)phenyl)-1H-pyrazol-4-yl)-6-cyanopicolinamide] | > 1000 | < 40
4 | CC(C)(O)c1nn(-c2ccc(N3CCN(C4CCN(c5ccc(NC6CCC(=O)NC6=O)cc5F)CC4)CC3)cc2)cc1NC(=O)c1cncc(C#N)c1 (stereo not drawn) [Compound A389, 5-Cyano-N-(1-(4-(4-(1-(4-((2,6-dioxopiperidin-3-yl)amino)-2-fluorophenyl)piperidin-4-yl)piperazin-1-yl)phenyl)-3-(2-hydroxypropan-2-yl)-1H-pyrazol-4-yl)nicotinamide] | > 1000 | < 40

Second part, the compound after the results:

Row | DC50 [nM] | Dmax [%] | Structure (SMILES)
5 | < 100 | > 60 | NC(=O)c1nn(-c2ccc(N3CCN(C4CCN(c5ccc(C(=O)NC6CCC(=O)NC6=O)cc5F)CC4)CC3)cc2)cc1NC(=O)c1cccc(C(F)(F)F)n1 (stereo not drawn) [Compound A378, 1-(4-{4-[1-(4-{[(2,6-Dioxopiperidin-3-yl)amino]carbonyl}-2-fluorophenyl)piperidin-4-yl]piperazin-1-yl}phenyl)-4-({[6-(trifluoromethyl)pyridin-2-yl]carbonyl}amino)pyrazole-3-carboxamide]
6 | < 100 | > 60 | NC(=O)c1nn(-c2ccc(N3CCN(C4CCN(c5ccc(C(=O)NC6CCC(=O)NC6=O)nc5)CC4)CC3)cc2)cc1NC(=O)c1cccc(C(F)(F)F)n1 (stereo not drawn) [Compound A379, N-(3-Carbamoyl-1-(4-(4-(1-(6-((2,6-dioxopiperidin-3-yl)carbamoyl)pyridin-3-yl)piperidin-4-yl)piperazin-1-yl)phenyl)-1H-pyrazol-4-yl)-6-(trifluoromethyl)picolinamide]
7 | > 1000 | < 40 | N#Cc1cccc(C(=O)Nc2cn(-c3ccc(N4CCN(CC5CCN(c6ccc(NC7CCC(=O)NC7=O)cc6F)CC5)CC4)cc3)nc2C(N)=O)n1 (stereo not drawn) [Compound A384, N-(3-Carbamoyl-1-(4-(4-((1-(4-((2,6-dioxopiperidin-3-yl)amino)-2-fluorophenyl)piperidin-4-yl)methyl)piperazin-1-yl)phenyl)-1H-pyrazol-4-yl)-6-cyanopicolinamide]
8 | > 1000 | < 40 | CC(C)(O)c1nn(-c2ccc(N3CCN(CC4CCN(c5ccc(NC6CCC(=O)NC6=O)cc5F)CC4)CC3)cc2)cc1NC(=O)c1cncc(C#N)c1 (stereo not drawn) [Compound A385, 5-Cyano-N-(1-(4-(4-((1-(4-((2,6-dioxopiperidin-3-yl)amino)-2-fluorophenyl)piperidin-4-yl)methyl)piperazin-1-yl)phenyl)-3-(2-hydroxypropan-2-yl)-1H-pyrazol-4-yl)nicotinamide]
9 | > 1000 | < 40 | CC(C)(O)c1nn(-c2ccc(N3CCN(CC4CCN(c5ccc(NC6CCC(=O)NC6=O)cc5F)CC4)CC3)cc2)cc1NC(=O)c1cccc(C#N)n1 (stereo not drawn) [Compound A386, 6-Cyano-N-(1-(4-(4-((1-(4-((2,6-dioxopiperidin-3-yl)amino)-2-fluorophenyl)piperidin-4-yl)methyl)piperazin-1-yl)phenyl)-3-(2-hydroxypropan-2-yl)-1H-pyrazol-4-yl)picolinamide]
